# Active and inactive are the calls of the source.
# Key:
# [1] = molecular target: T1, Corticotropin-releasing factor receptor 2/Corticotropin-releasing factor-binding protein (Homo sapiens, UniProt P24387+Q13324); experiment: activators of CRF receptor 2 with binding protein – uHTS hits, confirmation (AID 602473); assay type: functional; details: read-out: EC50_Mean
# T1 sequence (Q13324 whole entry): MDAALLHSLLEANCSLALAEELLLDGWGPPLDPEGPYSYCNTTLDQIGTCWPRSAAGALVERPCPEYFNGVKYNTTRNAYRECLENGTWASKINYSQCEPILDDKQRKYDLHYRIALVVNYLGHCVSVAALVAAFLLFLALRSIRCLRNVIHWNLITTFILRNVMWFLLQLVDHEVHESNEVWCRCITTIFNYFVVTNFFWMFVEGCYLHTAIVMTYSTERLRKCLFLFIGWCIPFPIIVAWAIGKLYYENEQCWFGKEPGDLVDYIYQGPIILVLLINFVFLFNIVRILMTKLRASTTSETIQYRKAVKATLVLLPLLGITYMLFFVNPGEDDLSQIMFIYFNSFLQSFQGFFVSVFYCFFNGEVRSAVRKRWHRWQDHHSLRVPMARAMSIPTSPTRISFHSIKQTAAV
# T1 sequence (P24387 whole entry): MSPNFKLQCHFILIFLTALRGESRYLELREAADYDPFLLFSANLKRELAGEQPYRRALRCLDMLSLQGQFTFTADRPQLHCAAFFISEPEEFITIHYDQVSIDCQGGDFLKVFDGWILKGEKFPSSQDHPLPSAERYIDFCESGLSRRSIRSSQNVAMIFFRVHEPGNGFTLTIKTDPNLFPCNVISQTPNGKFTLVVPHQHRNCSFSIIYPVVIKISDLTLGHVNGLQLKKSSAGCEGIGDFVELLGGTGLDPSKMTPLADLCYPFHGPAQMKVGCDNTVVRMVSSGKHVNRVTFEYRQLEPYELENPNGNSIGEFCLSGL
# [2] = molecular target: T1, Corticotropin-releasing factor receptor 2/Corticotropin-releasing factor-binding protein; experiment: Dose Response confirmation of uHTS hits for small molecule antagonists of the CRF-binding protein and CRF-R2 receptor complex.; assay type: functional; details: read-out: IC50_Mean
# [3] = CRF-BP/CRF-R2 complex antagonists, dose response, cell-based, uHTS hits, 384-well (AID 651639); assay type: functional, Homo sapiens; details: read-out: IC50_Mean
# [4] = molecular target: T2, Probable nicotinate-nucleotide adenylyltransferase (Staphylococcus aureus (strain N315), UniProt P65502); assay type: functional, Staphylococcus aureus subsp. aureus N315;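 on IC50 Mean: confirmatory dose-response retesting of NadD inhibitor hits first found in an ultra-high-throughput screen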
# [5] = molecular target: T2, Probable nicotinate-nucleotide adenylyltransferase; assay type: functional, Staphylococcus aureus subsp. aureus N315; details: read-out: IC50_Mean
# [6] = molecular target: T3, Methionyl-tRNA synthetase, putative (Trypanosoma brucei brucei, UniProt Q38C91); assay type: functional, Trypanosoma brucei brucei strain 927/4 GUTat10.1
# T3 sequence (Q38C91 whole entry): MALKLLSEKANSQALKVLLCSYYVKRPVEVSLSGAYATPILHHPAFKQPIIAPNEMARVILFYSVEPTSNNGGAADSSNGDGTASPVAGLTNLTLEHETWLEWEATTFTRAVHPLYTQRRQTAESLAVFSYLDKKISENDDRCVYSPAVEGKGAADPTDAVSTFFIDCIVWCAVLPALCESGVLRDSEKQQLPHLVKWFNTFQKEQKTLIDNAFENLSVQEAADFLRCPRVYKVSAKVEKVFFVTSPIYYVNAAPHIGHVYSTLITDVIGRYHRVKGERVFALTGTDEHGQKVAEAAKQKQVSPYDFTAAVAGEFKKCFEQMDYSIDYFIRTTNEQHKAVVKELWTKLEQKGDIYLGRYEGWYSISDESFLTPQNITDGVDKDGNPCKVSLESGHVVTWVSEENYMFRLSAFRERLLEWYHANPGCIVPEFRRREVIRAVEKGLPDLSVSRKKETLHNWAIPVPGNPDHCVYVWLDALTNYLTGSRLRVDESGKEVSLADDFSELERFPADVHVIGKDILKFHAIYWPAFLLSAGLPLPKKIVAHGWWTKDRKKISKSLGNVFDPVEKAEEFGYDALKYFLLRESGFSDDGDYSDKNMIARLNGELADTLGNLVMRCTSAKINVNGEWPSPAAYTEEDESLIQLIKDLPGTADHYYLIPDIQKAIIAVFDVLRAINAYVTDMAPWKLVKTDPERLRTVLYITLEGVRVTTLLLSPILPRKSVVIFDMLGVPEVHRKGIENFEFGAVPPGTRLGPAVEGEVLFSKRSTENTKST
# [7] = molecular target: T3, Methionyl-tRNA synthetase, putative; assay type: functional, Trypanosoma brucei brucei strain 927/4 GUTat10.1; remark: listed apart in the source
# [8] = Counterscreen for inhibitors of Trypanosoma brucei methionyl tRNA synthetase (MetRS): Luminescence-based cell-based high throughput dose response assay to identify compounds that are cytotoxic to Jurkat human T lymphocyte cells.; assay type: functional
# [9] = molecular target: T4, Heat shock factor protein 1 (Mus musculus, UniProt P38532); experiment: HSF1 potentiators in luciferase reporter cells, confirmation, cell-based, NIH3T3, luminescence, dose retest (AID 435004); assay type: functional;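 further: stress induced by proteasome inhibitor MG132 added 30 min after compound; luciferase reporter driven by HSF1 response element in NIH3T3 cells; actives raise luminescence as potentiators of the MG132 stress response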
# T4 sequence (P38532 whole entry): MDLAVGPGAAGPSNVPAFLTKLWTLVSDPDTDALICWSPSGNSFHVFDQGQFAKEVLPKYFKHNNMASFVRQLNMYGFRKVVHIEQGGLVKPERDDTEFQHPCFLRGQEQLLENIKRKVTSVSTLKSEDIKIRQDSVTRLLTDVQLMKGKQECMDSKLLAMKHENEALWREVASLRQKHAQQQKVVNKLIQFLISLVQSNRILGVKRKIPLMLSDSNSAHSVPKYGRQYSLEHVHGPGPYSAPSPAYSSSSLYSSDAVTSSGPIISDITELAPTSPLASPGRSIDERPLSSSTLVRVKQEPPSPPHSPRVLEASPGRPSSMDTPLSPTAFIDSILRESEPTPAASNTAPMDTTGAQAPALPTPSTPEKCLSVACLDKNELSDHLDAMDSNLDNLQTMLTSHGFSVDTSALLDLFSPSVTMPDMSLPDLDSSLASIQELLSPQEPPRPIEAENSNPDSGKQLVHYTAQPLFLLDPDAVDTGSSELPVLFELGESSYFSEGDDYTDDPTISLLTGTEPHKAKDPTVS
# [10] = molecular target: T5, Short transient receptor potential channel 4 (Mus musculus, UniProt Q9QUQ5); experiment: mouse TRPC4 channel inhibitors, dose response, cell-based, HEK293 TRPC4/mu-opioid, Fluo-4 calcium (AID 434942); assay type: functional;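 further: potency of inhibitors blocking the TRPC4 calcium response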
# T5 sequence (Q9QUQ5 whole entry): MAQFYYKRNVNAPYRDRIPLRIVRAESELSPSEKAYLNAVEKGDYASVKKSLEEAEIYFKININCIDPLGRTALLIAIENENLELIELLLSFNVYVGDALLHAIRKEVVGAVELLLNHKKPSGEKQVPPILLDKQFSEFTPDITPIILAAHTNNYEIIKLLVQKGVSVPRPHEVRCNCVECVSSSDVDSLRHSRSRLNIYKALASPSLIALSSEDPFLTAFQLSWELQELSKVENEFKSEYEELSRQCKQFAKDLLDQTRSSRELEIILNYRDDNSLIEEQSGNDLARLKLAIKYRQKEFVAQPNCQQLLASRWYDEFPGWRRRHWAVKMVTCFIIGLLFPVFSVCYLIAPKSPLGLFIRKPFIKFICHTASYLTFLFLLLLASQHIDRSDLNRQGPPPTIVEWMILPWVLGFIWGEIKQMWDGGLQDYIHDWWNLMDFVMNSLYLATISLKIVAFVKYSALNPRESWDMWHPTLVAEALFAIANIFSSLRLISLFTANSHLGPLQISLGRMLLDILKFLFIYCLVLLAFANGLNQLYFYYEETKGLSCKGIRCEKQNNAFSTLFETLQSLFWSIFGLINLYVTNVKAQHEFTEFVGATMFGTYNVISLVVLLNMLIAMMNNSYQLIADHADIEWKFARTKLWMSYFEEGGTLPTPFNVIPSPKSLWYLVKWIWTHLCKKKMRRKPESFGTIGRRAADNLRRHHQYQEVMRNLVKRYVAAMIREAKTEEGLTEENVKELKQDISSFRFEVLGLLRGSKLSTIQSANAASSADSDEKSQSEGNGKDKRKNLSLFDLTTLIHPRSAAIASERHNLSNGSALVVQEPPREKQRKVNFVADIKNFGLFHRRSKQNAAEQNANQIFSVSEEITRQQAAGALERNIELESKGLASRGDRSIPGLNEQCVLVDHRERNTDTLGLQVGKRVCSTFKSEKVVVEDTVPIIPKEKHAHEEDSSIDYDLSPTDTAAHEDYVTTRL
# [11] = molecular target: T6, DNA repair protein RAD52 homolog (Homo sapiens, UniProt P43351); assay type: functional, biochemical
# T6 sequence (P43351 whole entry): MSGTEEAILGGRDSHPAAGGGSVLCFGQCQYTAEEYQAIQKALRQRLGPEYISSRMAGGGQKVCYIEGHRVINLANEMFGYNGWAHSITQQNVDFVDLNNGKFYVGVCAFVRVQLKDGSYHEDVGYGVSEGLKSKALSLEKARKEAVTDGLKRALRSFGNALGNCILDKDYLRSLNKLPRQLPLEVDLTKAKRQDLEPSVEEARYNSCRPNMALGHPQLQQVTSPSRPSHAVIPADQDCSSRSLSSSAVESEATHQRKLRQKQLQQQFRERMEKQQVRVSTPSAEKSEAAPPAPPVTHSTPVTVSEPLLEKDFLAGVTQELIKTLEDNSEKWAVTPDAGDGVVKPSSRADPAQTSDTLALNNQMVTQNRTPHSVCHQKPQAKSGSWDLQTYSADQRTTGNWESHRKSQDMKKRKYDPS
# Cysteine protease ATG4B = molecular target: T7, Cysteine protease ATG4B (Homo sapiens, UniProt Q9Y4P1); assay type: functional;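 further: Fluorescence-based dose-response confirmation assay measuring inhibition of ATG4B activity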
# T7 sequence (Q9Y4P1 whole entry): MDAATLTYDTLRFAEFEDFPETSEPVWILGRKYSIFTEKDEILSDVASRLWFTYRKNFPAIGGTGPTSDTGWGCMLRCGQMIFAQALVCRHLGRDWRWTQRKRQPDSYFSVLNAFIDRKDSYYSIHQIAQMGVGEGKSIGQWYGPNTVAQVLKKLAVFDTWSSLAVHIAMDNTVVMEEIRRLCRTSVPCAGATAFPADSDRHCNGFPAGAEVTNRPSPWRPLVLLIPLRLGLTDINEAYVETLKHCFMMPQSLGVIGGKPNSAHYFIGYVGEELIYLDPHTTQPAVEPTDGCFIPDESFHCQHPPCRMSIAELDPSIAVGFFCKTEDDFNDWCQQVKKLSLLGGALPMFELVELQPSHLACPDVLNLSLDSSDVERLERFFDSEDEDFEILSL
# Phospholipase A2 = Phospholipase A2 (Homo sapiens, UniProt P04054); assay type: functional;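 further: confirmatory dose-response counterscreen on phospholipase A2, testing hits that came from an ultra-high-throughput screen for ATG4B inhibitors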
# Vero = experiment: cells; assay type: functional; details: Chlorocebus sabaeus
# Prothrombin = Prothrombin (Bos taurus, UniProt P00735); experiment: thrombin inhibition, dose response, biochemical, fluorescence polarization, uHTS hits (AID 602369); assay type: functional
# [12] = molecular target: 72 kDa type IV collagenase (Homo sapiens, UniProt P08253); experiment: Dose Response validation of uHTS RPN11 inhibitor hits using a MMP-2 Fluorescence assay.; assay type: functional
# [13] = molecular target: 26S proteasome non-ATPase regulatory subunit 14 (Homo sapiens, UniProt O00487); experiment: inhibition of proteasome subunit RPN11 – biochemical, fluorescence polarization, uHTS hits, confirmation (AID 602368); assay type: functional
# 26S proteasome non-ATPase regulatory subunit 14, sequence (O00487 whole entry): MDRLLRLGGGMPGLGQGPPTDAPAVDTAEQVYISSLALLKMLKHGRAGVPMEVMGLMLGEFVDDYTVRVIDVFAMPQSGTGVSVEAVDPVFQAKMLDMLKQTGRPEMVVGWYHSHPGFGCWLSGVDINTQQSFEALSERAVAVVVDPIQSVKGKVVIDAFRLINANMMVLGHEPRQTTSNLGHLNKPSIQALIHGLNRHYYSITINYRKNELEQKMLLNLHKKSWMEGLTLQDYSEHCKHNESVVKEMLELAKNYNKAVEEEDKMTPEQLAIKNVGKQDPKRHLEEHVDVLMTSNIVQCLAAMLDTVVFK
# T2 sequence (P65502 whole entry): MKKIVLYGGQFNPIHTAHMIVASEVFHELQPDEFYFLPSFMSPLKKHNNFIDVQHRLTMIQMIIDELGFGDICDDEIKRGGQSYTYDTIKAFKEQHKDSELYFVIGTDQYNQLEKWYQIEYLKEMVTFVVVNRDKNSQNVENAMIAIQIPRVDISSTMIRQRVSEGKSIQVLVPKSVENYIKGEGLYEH
# Phospholipase A2, sequence (P04054 whole entry): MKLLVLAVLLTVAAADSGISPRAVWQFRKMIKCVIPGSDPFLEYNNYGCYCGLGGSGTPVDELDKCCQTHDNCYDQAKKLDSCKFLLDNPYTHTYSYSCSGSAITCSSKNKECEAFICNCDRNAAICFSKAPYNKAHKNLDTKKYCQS
# 72 kDa type IV collagenase, sequence (P08253 whole entry): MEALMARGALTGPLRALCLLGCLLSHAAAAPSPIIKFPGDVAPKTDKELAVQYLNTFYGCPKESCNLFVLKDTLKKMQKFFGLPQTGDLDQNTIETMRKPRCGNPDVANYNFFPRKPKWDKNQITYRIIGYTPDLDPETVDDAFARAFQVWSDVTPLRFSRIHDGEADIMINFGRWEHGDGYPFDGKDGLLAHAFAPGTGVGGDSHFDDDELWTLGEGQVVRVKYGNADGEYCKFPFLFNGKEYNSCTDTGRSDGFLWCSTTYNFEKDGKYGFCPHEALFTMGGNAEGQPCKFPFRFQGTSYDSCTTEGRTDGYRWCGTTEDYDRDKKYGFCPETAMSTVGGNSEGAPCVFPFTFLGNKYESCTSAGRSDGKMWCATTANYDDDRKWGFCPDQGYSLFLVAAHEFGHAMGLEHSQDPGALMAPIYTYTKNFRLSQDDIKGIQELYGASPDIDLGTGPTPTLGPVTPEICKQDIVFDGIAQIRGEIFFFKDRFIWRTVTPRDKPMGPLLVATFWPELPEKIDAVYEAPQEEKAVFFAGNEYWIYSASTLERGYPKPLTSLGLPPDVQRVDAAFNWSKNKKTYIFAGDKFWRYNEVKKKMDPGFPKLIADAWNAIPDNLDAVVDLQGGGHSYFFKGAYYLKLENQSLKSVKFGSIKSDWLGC
Structure (SMILES),EC50 [1],IC50 [2],IC50 [3],IC50 [6],IC50 [7],IC50 [8],further results
CCOc1ccc(S(=O)(=O)n2ccc(C)n2)c2ccccc12,21.2 µM (active),< 0.368 µM (active),11.7 µM (active),–,–,–,–
Cc1ccc(-n2nc3c(c2NC(=O)/C=C\c2ccc4c(c2)OCO4)CSC3)c(C)c1,–,–,–,–,–,–,IC50 [4]: 5.88 µM (active); IC50 [5]: 21.5 µM (active)
CCOC(=O)c1sc(NC(=O)Nc2ccccc2)cc1C,–,–,–,4.39 µM (active),43.9 µM (inactive),45 µM (inactive),EC50 [9]: > 260 µM (inconclusive)
CCc1ccc2nc(NC(=N)N)nc(C)c2c1,–,–,–,–,–,–,EC50 [10]: 15 µM (active); AC50 [11]: 16.8 µM (active)
N#Cc1ccsc1NC(=O)c1cccc([N+](=O)[O-])c1,4.08 µM (active),3.12 µM (active),> 20 µM (inactive),–,–,–,–
Cc1ccc(S(=O)(=O)N2CCCCC2)cc1C(=O)N(CCc1ccccc1)Cc1ccccc1,> 53 µM (inactive),1.19 µM (active),19.3 µM (active),–,–,–,–
CCCCCCCCCCCCCCC(O)C[N+](C)(CCO)CCO (configuration not stated),–,–,–,–,–,–,IC50 (Cysteine protease ATG4B): 8.23 µM (active); IC50 (Phospholipase A2): 7.95 µM (active); CC50 (Vero): 13.1 µM (active); IC50 (Prothrombin): 50 µM (active); AC50 [11]: 8.88 µM (active); IC50 [12]: 85 µM (active); IC50 [13]: 25.3 µM (active)
CCOc1ccccc1NS(=O)(=O)c1c(C)[nH]c(C)c1C(=O)N1CCCCC1,–,–,–,26.1 µM (inactive),11.2 µM (inactive),83.3 µM (inactive),–
O=C(NCc1cc(Cl)cc(Cl)c1)c1csc(COCCO)n1,–,–,–,12.2 µM (inactive),5.4 µM (active),83.3 µM (inactive),–
Nc1ccccc1C(=O)NNC(=O)/C(O)=C/C(=O)c1ccccc1,–,–,–,–,–,–,IC50 [4]: 4.63 µM (active); IC50 [5]: 12 µM (active)

# From ChEMBL document CHEMBL1201862, “PubChem BioAssay data set” (2004)
